{
  "source": "PubChem BioAssay AID1671209",
  "molecular_target": "Dual specificity tyrosine-phosphorylation-regulated kinase 4 (Homo sapiens) (UniProt Q9NR20)",
  "sequence (Q9NR20 whole entry, looked up)": "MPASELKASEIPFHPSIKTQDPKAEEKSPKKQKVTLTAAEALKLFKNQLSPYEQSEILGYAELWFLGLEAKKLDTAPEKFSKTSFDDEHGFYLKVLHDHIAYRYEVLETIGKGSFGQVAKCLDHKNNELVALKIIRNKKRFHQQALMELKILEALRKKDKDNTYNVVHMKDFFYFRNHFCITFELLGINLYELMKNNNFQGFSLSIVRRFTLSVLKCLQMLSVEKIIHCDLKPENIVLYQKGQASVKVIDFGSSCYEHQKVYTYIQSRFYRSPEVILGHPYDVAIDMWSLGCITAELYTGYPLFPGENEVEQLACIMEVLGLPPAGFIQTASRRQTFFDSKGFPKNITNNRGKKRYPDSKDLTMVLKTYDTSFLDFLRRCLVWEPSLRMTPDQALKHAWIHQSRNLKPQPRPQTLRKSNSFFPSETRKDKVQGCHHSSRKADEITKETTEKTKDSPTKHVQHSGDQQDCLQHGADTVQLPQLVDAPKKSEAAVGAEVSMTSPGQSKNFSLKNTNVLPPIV",
  "experiment": "DYRK4 kinase inhibitors, dose response, biochemical, Z'-LYTE, FRET, protease-coupled, direct format (AID 1671209)",
  "details": "Z'-LYTE FRET kinase activity, recombinant DYRK4",
  "data": [
    {"molecule": "Brc1c(Br)c(Br)c2n[nH]nc2c1Br", "values": [
      {"measurement": "IC50", "value": 12.9, "unit": "µM"}
    ]}
  ]
}
